Measured values as given in ChEMBL document CHEMBL1201862, “PubChem BioAssay data set” (2004).
Activity calls are given as the source filed them.

Experiments:
[1] = molecular target: Glucose-6-phosphate 1-dehydrogenase (Homo sapiens, UniProt P11413); test: inhibition of Homo sapiens G6PD, dose series – biochemical, fluorescence, selectivity assay for P. falciparum G6PD inhibitor project, dose response (AID 504792); format: functional
[2] = blockers of HIV-1 ZM109 envelope-driven cell-cell fusion – HeLa effector, CEM target cells, luciferase, cherry-pick, dose response (AID 652058); format: functional, cell-based;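 further: luciferase signal from HIV-1 Env mediated cell-cell fusion of effector and target cells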
[3] = blockers of HIV-1 envelope-mediated cell-cell fusion – cherry-pick, dose response (AID 652057); format: functional, cell-based
[4] = HIV-1 AD8 envelope cell-cell fusion blockers – cherry-pick, dose response (AID 652062); format: functional, cell-based;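 further: luciferase signal from cell-cell fusion driven by HIV-1 clade B AD8 Env; potency is for inhibitors of fusion seen as a drop in luminescence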
[5] = off-target signal loss in HeLa-CEM21 co-culture – HeLa F-luc CTL cells, cherry-picked, counter-screen for HIV-1 Env fusion inhibitor project, dose response (AID 652040); format: functional, cell-based;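 further: potency for signal decrease marking cytotoxic or nonspecific inhibition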
Beta-galactosidase = Beta-galactosidase (Escherichia coli, UniProt Q8VNN2); test: Dose response counterscreen for EBI2 assay utilizing the enzyme, b-galactosidase.; format: functional
[6] = molecular target: 5-hydroxytryptamine receptor 2A (Mus musculus, UniProt P35363); format: functional, cell-based;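 further: CHO-K1 cells with tagged receptor and beta-arrestin; agonist potency measured as compound-induced activation of the receptor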
Mu-type opioid receptor = Mu-type opioid receptor (Homo sapiens, UniProt P35372); format: functional, cell-based;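 further: U2OS cells with beta-arrestin recruitment to OPRM1 by beta-gal complementation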
[7] = Luminescence Cell-Based Dose Retest to Confirm Inhibitors of Cancer Stem Cells. [Related pubchem assays (depositor defined):AID2717, AID2721]; format: functional; conditions: Homo sapiens
[8] = molecular target: T1, Small ubiquitin-related modifier 1 (Homo sapiens, UniProt P63165); test: SUMO1 protein interaction blockers, potency – biochemical, fluorescence polarization, uHTS hits, dose response (AID 624382); format: functional; conditions: read-out: IC50_Mean
Genome polyprotein = Genome polyprotein (dengue virus type 2, UniProt P29990); test: flavivirus cap methylation enzyme inhibition – biochemical, confirmation dose response, primary screen (AID 588689); format: functional
[9] = molecular target: T1, Small ubiquitin-related modifier 1; test: SUMO1 protein-protein binding blockers, potency – biochemical, FRET, dose response (AID 624383); format: functional; conditions: read-out: IC50_Mean
Cytochrome P450 2C9 = Cytochrome P450 2C9 (Homo sapiens, UniProt P11712)
Cytochrome P450 3A4 = Cytochrome P450 3A4 (Homo sapiens, UniProt P08684);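 further: CYP3A4 tested as one member of a cytochrome P450 panel screen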
Cytochrome P450 2C19 = Cytochrome P450 2C19 (Homo sapiens, UniProt P33261); test: Cytochrome panel assay with activity outcomes. Panel member name: p450-cyp2c19 Compounds with AC50 equal or less than 10 uM are considered active; format: functional
[10] = molecular target: T2, Low molecular weight phosphotyrosine protein phosphatase (Homo sapiens, UniProt P24666); format: functional; conditions: read-out: IC50_Mean;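 further: Dose-response confirmation assay measuring inhibition of LMPTP enzyme activity by fluorescence intensity read-out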
T2 sequence (P24666 whole entry): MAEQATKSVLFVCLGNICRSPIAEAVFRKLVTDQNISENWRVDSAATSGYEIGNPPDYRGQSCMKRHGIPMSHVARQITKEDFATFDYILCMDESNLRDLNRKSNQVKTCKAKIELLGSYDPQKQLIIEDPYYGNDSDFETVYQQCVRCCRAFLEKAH

[11] = OVCAR-3 cell viability loss – plate reader, dry powder samples, PAX8 inhibitor project, dose response (AID 743044); format: functional, cell-based
Paired box protein Pax-8 = Paired box protein Pax-8 (Homo sapiens, UniProt Q06710); test: PAX8 transcriptional activity inhibition in RMG-I – RMG-I cells, luciferase, cherry-pick, dose response (AID 687027); format: functional, cell-based;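 further: luciferase reporter driven by Pax8 target thyroperoxidase promoter measured by SteadyGlo luminescence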
[12] = OVCAR8 cell viability loss – plate reader, dry powder samples, PAX8 project, dose response (AID 743197); format: functional, cell-based; conditions: OVCAR-8
[13] = IGROV1 cell killing – plate reader, dry powder samples, PAX8 inhibitor project, dose response (AID 743043); format: functional, cell-based; conditions: IGROV-1
[14] = T. cruzi growth inhibition in host cells, dose response, cell-based, plate reader, dry powder, set 2 (AID 652275); format: functional
[15] = microbe, parasite or virus in culture; format: functional; conditions: Mycobacterium tuberculosis
[16] = molecular target: T3, Ubiquitin-conjugating enzyme E2 N (Homo sapiens, UniProt P61088); format: functional;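 further: Dose-response confirmation in a TR-FRET assay detecting UBC13-driven polyubiquitin chain formation, inhibition measured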
T3 sequence (P61088 whole entry): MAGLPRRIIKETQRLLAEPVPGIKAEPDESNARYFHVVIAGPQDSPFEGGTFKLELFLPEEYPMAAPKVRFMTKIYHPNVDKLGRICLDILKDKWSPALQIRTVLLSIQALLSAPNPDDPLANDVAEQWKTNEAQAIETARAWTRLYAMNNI

[17] = molecular target: T4, Rac GTPase-activating protein 1 (Homo sapiens, UniProt Q9H0H5); test: blockers of MgcRacGAP-driven Rac1 GTP hydrolysis – biochemical, ADP Hunter fluorescence, primary and confirmatory, confirmation (AID 624330); format: functional
T4 sequence (Q9H0H5 whole entry): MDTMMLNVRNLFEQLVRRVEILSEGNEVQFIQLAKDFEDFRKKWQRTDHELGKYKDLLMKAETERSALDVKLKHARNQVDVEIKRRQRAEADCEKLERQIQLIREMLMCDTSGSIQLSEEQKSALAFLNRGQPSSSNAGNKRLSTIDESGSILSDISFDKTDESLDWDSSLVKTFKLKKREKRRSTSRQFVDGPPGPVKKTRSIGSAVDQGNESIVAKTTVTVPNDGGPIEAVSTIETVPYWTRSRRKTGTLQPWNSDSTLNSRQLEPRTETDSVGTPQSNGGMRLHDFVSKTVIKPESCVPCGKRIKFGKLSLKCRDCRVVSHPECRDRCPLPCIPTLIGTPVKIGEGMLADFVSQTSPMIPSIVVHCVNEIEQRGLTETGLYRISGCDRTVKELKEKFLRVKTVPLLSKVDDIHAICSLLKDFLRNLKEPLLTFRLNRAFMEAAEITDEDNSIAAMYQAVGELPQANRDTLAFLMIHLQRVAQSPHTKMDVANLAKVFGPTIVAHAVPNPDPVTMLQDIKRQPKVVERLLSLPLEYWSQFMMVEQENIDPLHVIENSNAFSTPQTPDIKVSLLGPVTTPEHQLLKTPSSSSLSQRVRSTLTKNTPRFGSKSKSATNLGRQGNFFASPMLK

T1 sequence (P63165 whole entry): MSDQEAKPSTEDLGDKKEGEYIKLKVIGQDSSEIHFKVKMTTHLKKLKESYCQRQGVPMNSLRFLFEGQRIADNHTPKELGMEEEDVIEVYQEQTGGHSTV
Chain of Mu-type opioid receptor (P35372 whole entry): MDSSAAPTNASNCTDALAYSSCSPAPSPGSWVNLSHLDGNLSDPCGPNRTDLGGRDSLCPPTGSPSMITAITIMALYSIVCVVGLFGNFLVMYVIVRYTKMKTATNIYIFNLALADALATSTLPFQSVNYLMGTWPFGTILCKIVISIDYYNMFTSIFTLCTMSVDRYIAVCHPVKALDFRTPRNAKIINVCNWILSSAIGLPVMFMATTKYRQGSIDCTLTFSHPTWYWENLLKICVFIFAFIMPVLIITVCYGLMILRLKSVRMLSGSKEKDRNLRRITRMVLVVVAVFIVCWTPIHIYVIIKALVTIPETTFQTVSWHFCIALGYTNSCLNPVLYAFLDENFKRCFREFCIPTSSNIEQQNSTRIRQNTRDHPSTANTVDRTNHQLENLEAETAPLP
Chain of Beta-galactosidase (Q8VNN2 whole entry): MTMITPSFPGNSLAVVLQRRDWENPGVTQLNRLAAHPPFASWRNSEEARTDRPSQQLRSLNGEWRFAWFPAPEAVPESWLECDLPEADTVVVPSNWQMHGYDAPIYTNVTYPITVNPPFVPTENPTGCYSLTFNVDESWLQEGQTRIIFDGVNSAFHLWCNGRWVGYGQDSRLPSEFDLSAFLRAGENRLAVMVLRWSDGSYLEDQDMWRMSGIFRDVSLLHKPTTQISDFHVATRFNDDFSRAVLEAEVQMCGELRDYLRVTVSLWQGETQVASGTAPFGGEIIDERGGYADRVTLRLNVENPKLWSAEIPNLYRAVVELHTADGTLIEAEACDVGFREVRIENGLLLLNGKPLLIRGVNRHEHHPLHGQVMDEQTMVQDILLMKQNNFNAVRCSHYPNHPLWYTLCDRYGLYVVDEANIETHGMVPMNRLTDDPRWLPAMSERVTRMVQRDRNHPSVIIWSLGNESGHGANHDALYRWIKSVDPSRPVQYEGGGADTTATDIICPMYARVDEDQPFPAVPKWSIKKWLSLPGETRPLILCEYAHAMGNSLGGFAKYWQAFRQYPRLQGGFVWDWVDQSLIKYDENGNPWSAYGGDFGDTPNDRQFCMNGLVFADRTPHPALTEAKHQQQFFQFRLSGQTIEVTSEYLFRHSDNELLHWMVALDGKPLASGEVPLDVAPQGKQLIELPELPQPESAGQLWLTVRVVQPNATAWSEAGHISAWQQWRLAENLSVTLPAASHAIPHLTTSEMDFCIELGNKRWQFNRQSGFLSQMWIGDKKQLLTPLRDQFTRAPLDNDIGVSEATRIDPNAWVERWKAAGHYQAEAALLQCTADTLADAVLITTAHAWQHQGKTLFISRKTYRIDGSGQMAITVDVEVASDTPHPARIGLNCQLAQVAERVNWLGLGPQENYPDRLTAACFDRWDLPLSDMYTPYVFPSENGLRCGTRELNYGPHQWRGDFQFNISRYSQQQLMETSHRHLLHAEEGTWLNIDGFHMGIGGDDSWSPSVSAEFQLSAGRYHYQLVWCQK
Chain of Glucose-6-phosphate 1-dehydrogenase (P11413 whole entry, the tested form may be a part): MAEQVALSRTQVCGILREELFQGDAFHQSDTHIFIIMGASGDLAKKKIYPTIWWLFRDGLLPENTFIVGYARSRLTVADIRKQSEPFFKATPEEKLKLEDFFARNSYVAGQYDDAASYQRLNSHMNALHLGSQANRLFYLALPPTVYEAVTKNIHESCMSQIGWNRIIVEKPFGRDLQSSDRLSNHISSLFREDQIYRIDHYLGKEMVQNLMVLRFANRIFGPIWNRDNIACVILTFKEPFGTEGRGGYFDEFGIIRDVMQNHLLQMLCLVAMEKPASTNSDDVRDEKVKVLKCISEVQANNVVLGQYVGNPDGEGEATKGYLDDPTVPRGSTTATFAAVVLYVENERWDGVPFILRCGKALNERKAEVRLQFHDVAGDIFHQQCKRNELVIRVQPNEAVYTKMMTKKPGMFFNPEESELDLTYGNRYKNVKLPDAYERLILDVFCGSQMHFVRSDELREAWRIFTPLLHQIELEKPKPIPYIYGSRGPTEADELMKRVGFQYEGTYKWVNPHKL
Chain of Paired box protein Pax-8 (Q06710 whole entry): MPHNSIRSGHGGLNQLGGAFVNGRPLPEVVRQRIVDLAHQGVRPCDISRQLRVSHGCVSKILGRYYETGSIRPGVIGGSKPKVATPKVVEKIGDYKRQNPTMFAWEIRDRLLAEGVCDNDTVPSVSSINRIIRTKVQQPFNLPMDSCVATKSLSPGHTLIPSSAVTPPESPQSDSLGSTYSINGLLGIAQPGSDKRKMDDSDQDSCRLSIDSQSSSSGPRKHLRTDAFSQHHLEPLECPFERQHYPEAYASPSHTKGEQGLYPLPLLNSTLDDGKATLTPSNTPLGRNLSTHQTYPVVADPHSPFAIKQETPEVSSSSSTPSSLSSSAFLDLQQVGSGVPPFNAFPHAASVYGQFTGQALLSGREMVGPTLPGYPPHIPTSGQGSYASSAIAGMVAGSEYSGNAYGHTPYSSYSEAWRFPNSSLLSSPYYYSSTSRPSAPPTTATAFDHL
Chain of 5-hydroxytryptamine receptor 2A (P35363 whole entry): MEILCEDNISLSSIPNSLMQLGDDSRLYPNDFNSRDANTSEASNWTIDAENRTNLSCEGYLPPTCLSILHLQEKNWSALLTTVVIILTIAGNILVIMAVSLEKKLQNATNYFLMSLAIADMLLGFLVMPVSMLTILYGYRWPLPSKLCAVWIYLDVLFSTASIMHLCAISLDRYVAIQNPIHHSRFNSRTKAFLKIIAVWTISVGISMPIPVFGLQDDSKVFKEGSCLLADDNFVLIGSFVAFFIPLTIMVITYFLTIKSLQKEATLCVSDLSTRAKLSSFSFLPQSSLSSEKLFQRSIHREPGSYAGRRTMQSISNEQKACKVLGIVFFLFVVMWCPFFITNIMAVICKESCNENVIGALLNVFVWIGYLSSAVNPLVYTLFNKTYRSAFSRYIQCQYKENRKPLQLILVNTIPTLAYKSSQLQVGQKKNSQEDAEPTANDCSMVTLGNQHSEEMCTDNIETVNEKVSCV
Chain of Cytochrome P450 3A4 (P08684 whole entry): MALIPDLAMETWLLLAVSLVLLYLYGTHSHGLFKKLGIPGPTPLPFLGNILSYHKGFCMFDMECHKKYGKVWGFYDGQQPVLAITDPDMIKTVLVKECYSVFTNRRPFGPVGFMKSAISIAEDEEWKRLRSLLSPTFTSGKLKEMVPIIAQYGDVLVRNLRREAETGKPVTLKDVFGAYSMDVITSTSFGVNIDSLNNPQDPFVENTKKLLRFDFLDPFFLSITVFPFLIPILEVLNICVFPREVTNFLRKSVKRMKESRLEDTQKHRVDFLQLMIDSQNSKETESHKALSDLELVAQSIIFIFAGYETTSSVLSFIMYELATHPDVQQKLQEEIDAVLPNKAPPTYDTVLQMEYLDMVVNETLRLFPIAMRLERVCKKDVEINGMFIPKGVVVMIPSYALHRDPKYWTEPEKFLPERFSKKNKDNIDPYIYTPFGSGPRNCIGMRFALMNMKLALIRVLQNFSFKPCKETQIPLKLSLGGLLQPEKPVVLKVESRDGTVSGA
Chain of Cytochrome P450 2C9 (P11712 whole entry): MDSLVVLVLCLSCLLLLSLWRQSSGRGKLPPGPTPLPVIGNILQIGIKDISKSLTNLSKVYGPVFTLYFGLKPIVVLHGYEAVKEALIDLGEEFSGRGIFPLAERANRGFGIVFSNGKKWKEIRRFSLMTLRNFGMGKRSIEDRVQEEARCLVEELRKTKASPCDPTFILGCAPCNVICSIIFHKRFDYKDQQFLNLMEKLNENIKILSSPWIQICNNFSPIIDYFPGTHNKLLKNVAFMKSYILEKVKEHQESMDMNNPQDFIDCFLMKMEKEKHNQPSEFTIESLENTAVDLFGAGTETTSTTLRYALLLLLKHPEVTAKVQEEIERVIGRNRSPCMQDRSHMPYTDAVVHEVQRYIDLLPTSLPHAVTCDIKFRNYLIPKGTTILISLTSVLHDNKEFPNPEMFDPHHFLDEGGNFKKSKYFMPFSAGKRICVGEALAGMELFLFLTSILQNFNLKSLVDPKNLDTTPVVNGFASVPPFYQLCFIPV
Chain of Cytochrome P450 2C19 (P33261 whole entry): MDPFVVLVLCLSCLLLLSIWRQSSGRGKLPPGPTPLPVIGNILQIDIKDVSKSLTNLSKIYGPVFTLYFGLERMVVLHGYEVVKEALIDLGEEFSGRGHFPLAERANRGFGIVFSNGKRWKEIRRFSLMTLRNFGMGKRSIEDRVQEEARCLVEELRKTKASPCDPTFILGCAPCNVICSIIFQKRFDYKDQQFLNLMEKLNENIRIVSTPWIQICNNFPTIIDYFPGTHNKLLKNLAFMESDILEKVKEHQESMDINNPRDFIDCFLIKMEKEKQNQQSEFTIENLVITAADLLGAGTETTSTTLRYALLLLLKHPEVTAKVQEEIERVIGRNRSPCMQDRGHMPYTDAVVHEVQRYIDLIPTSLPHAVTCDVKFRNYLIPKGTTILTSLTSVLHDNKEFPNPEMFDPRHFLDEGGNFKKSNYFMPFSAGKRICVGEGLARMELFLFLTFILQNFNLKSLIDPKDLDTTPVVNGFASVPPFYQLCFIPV

Structure (SMILES): CCc1ccccc1N1CSC2=C(C#N)C(c3ccccc3F)CC(=O)N2C1 (configuration not stated)
- IC50 [1]: > 80 µM (inactive)

Structure (SMILES): COc1cccc(C(=O)Nc2nnc(S(=O)(=O)N(C)Cc3ccccc3)s2)c1
- IC50 [1]: > 80 µM (inactive)

Structure (SMILES): CCN(CC)S(=O)(=O)c1cc(NC(=O)C(=O)c2c(-c3ccccc3)cc3ccccn23)ccc1C
- AC50 [2]: 24.9 µM (active)
- AC50 [3]: 10.6 µM (active)
- AC50 [4]: 17.1 µM (active)
- AC50 [5]: 9.48 µM (active)

Structure (SMILES): CCOC(=O)N1CCN(C(=O)c2cc3cc(C)ccc3[nH]2)CC1
- IC50 (Beta-galactosidase): > 80 µM (inactive)

Structure (SMILES): C#CCCc1cscc1/C=[N+](\[O-])c1ccc(C(=O)OCC)cc1
- IC50 [1]: 29.7 µM (inactive)

Structure (SMILES): Cc1cc(C)c(O)c(-c2[nH]nc3c2C(c2cccc(O)c2)N(Cc2ccco2)C3=O)c1 (configuration not stated)
- EC50 [6]: 8.01 µM (active)
- EC50 (Mu-type opioid receptor): 92.5 µM (inactive)
- AC50 [7]: 5.49 µM (active)

Structure (SMILES): CC(=O)N1CCc2cc(C(=O)CN3CCN(c4ccccn4)CC3)ccc21
- EC50 [6]: 0.257 µM (active)
- EC50 (Mu-type opioid receptor): 92.5 µM (inactive)

Structure (SMILES): O=C(O)c1cccc(-n2cccc2/C=C/[N+](=O)[O-])c1
- IC50 [8]: > 66.6 µM (inactive)
- IC50 (Genome polyprotein): 53.6 µM (active)
- IC50 [9]: 26.5 µM (inactive)

Structure (SMILES): c1ccc2c(N3CCCCC3)ncnc2c1
- AC50 [2]: 5.37 µM (active)
- AC50 [3]: 31.5 µM (active)
- AC50 [4]: 53.9 µM (active)
- AC50 [5]: 56.2 µM (active)

Structure (SMILES): CCOC(=O)c1c(C)nc2sc3c(=O)n(-c4ccc(C(C)=O)cc4)nnc3c2c1-c1ccc(Cl)cc1
- AC50 (Cytochrome P450 2C9): 2.82 µM (inconclusive)
- AC50 (Cytochrome P450 3A4): inconclusive

Structure (SMILES): O=C(CN(Cc1ccccc1)S(=O)(=O)c1ccc(F)cc1)NCCC1=CCCCC1
- AC50 [2]: 6.77 µM (active)
- AC50 [3]: 2.55 µM (active)
- AC50 [4]: 38 µM (active)
- AC50 [5]: 17.1 µM (active)

Structure (SMILES): O=C(O)CC(c1cccc2ccccc12)n1cccc1 (configuration not stated)
- AC50 (Cytochrome P450 2C19): 28.2 µM (inconclusive)
- AC50 (Cytochrome P450 3A4): inconclusive

Structure (SMILES): CC(C)N1CCOC(c2ccc(O)c(O)c2)C1 (configuration not stated)
- EC50 [6]: 1.68 µM (active)
- EC50 (Mu-type opioid receptor): 92.3 µM (inactive)

Structure (SMILES): CC(=Cc1ccccc1)C=C1SC(=S)N(CCCC(=O)Nc2ccc(C(=O)O)cc2)C1=O
- IC50 [10]: 80 µM (inactive)

Structure (SMILES): CCC(c1nnnn1-c1c(C)cccc1C)N1CCN(C/C=C/c2ccccc2)CC1 (configuration not stated)
- EC50 [6]: 0.362 µM (active)
- EC50 (Mu-type opioid receptor): 92.6 µM (inactive)

Structure (SMILES): c1ccc(OCCNc2nc(NCC3CC3)nc3cc(-c4ccccc4)sc23)cc1
- IC50 (Beta-galactosidase): 104 µM (inactive)

Structure (SMILES): C[C@H](CO)N1C[C@H](C)[C@@H](CN(C)Cc2ccc(Oc3ccccc3)cc2)Oc2ccc(NS(=O)(=O)c3ccc(Cl)cc3)cc2CC1=O
- AC50 [11]: 68.7 µM (active)
- AC50 (Paired box protein Pax-8): 7.43 µM (active)
- AC50 [12]: 62.6 µM (active)
- AC50 [13]: 67.8 µM (active)

Structure (SMILES): C[C@@H]1CCCCO[C@@H](CN(C)Cc2ccc(C(F)(F)F)cc2)[C@H](C)CN([C@H](C)CO)C(=O)c2cc(NS(=O)(=O)c3ccc(F)cc3)ccc2O1
- AC50 [11]: 25.2 µM (active)
- AC50 (Paired box protein Pax-8): 5.08 µM (active)
- AC50 [12]: 40.3 µM (active)
- AC50 [13]: 40 µM (active)

Structure (SMILES): O=C(C[C@H]1CC[C@@H]2[C@H](COC[C@H](O)CN2S(=O)(=O)c2cccc(F)c2)O1)Nc1ccc(-c2ccccc2)cc1
- AC50 (Paired box protein Pax-8): 17.2 µM (active)
- AC50 [12]: 42.6 µM (active)
- AC50 [13]: 59.4 µM (active)

Structure (SMILES): CN(C)CC#Cc1cccc(-c2nc(C(=O)NCc3ccc4c(c3)OCO4)cc3c2[C@@H](CCO)N([S+]([O-])C(C)(C)C)C3)c1 (some centres not stated)
- AC50 [14]: 0.0993 µM (active)

Structure (SMILES): O=C(COc1ccc(Cl)cc1)N1CCN(Cc2ccc3c(c2)OCO3)CC1 [FIPEXIDE]
- IC50 (Beta-galactosidase): > 80 µM (inactive)

Structure (SMILES): C=C1c2c(Cl)ccc(O)c2C(=O)C2=C(O)[C@]3(O)C(=O)C(C(N)=O)=C(O)[C@@H](N(C)C)[C@@H]3[C@@H](O)[C@H]12.O=C(O)c1cc(S(=O)(=O)O)ccc1O [MECLOCYCLINE SULFOSALICYLATE]
- IC50 [8]: 8.79 µM (active)
- CC50 [15]: 16.4 µM (active)
- IC50 [16]: > 20 µM (inactive)
- IC50 [17]: 63 µM (active)
- IC50 [9]: 39.7 µM (inactive)
